Test system: NCI-H841 complex tumor spheroid viability
Experiment: Anticancer human tumor NCI-H841 cell line growth inhibition;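 also: spheroids exposed to compounds for 7 days before readout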;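 as to viability, T/C: 100% = DMSO vehicle control wells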
Details: for IC50: curve of first compound; for viability, T/C: stronger effect = lower value
Summary of the method: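 Single agents and combinations were tested on spheroids built from tumor cells plus HUVEC and hMSC, at half-log dilutions starting at or near clinical Cmax, else 10 microM; final DMSO 0.25% (v/v).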

[1] = second compound 0.003 µM, first compound 0.0316 µM
[2] = second compound 0.003 µM, first compound 0.1 µM
[3] = second compound 0.003 µM, first compound 0.316 µM
[4] = second compound 0.003 µM, first compound 1 µM
[5] = second compound 0.003 µM, first compound 3.16 µM
[6] = second compound 0.003 µM, first compound 10 µM
[7] = second compound 0.00949 µM, first compound 0.0316 µM
[8] = second compound 0.00949 µM, first compound 0.1 µM
[9] = second compound 0.00949 µM, first compound 0.316 µM
[10] = second compound 0.00949 µM, first compound 1 µM
[11] = second compound 0.00949 µM, first compound 3.16 µM
[12] = second compound 0.00949 µM, first compound 10 µM
[13] = second compound 0.03 µM, first compound 0.0316 µM
[14] = second compound 0.03 µM, first compound 0.1 µM
[15] = second compound 0.03 µM, first compound 0.316 µM
[16] = second compound 0.03 µM, first compound 1 µM
[17] = second compound 0.03 µM, first compound 3.16 µM
[18] = second compound 0.03 µM, first compound 10 µM
[19] = second compound 0.0949 µM, first compound 0.0316 µM
[20] = second compound 0.0949 µM, first compound 0.1 µM
[21] = second compound 0.0949 µM, first compound 0.316 µM
[22] = second compound 0.0949 µM, first compound 1 µM
[23] = second compound 0.0949 µM, first compound 3.16 µM
[24] = second compound 0.0949 µM, first compound 10 µM
[25] = second compound 0.3 µM, first compound 0.0316 µM
[26] = second compound 0.3 µM, first compound 0.1 µM
[27] = second compound 0.3 µM, first compound 0.316 µM
[28] = second compound 0.3 µM, first compound 1 µM
[29] = second compound 0.3 µM, first compound 3.16 µM
[30] = second compound 0.3 µM, first compound 10 µM

Row | Compound | IC50 (second compound 0.003 µM) | IC50 (second compound 0.00949 µM) | IC50 (second compound 0.03 µM) | IC50 (second compound 0.0949 µM) | IC50 (second compound 0.3 µM) | viability, T/C [1] | viability, T/C [2] | viability, T/C [3] | viability, T/C [4] | viability, T/C [5] | viability, T/C [6] | viability, T/C [7] | viability, T/C [8] | viability, T/C [9] | viability, T/C [10] | viability, T/C [11] | viability, T/C [12] | viability, T/C [13] | viability, T/C [14] | viability, T/C [15] | further results
1 | CC(C)n1c(=O)n(C)c2cnc3cc(F)c(-c4ccc(OCCCN5CCCCC5)nc4)cc3c21 + CC[C@@]1(O)C(=O)OCc2c1cc1n(c2=O)Cc2cc3c(CN(C)C)c(O)ccc3nc2-1 | < 31.6 nM | < 31.6 nM | < 31.6 nM | < 31.6 nM | < 31.6 nM | 47% | 51.3% | 56.6% | 63.5% | 65.1% | 43.2% | 4.68% | 4.13% | 6.57% | 6.6% | 10.3% | 7.04% | 1.24% | 1.19% | 1.09% | viability, T/C [16]: 1.3%; viability, T/C [17]: 1.9%; viability, T/C [18]: 2.19%; viability, T/C [19]: 2.12%; viability, T/C [20]: 1.53%; viability, T/C [21]: 1.21%; viability, T/C [22]: 1.06%; viability, T/C [23]: 1.07%; viability, T/C [24]: 1.41%; viability, T/C [25]: 2.29%; viability, T/C [26]: 2.08%; viability, T/C [27]: 1.55%; viability, T/C [28]: 0.71%; viability, T/C [29]: 0.65%; viability, T/C [30]: 0.78%
2 | CC1COCCN1c1cc(-c2ccnn2C)c2ccnc(-c3ccn[nH]3)c2n1 (stereo not given) + CC[C@@]1(O)C(=O)OCc2c1cc1n(c2=O)Cc2cc3c(CN(C)C)c(O)ccc3nc2-1 | < 31.6 nM | < 31.6 nM | < 31.6 nM | < 31.6 nM | < 31.6 nM | 8.47% | 2.38% | 1.1% | 1.26% | 1.27% | 1.76% | 1.08% | 0.71% | 0.73% | 0.86% | 1.2% | 1.56% | 0.77% | 0.57% | 0.65% | viability, T/C [16]: 0.82%; viability, T/C [17]: 1.08%; viability, T/C [18]: 1.32%; viability, T/C [19]: 0.39%; viability, T/C [20]: 0.37%; viability, T/C [21]: 0.5%; viability, T/C [22]: 0.56%; viability, T/C [23]: 0.78%; viability, T/C [24]: 1.13%; viability, T/C [25]: 0.42%; viability, T/C [26]: 0.41%; viability, T/C [27]: 0.4%; viability, T/C [28]: 0.5%; viability, T/C [29]: 0.54%; viability, T/C [30]: 0.72%
3 | COc1cc(C)[nH]c(=O)c1CN1CCc2c(Cl)cc(C(OC)C3COC3)c(Cl)c2C1=O (stereo not given) + CC[C@@]1(O)C(=O)OCc2c1cc1n(c2=O)Cc2cc3c(CN(C)C)c(O)ccc3nc2-1 | 3820 nM | 231 nM | < 31.6 nM | < 31.6 nM | < 31.6 nM | 86.1% | 72.1% | 62.9% | 56.6% | 49.7% | 47.5% | 82.3% | 62.6% | 43.2% | 38.2% | 32.5% | 27.9% | 3.53% | 1.86% | 4.87% | viability, T/C [16]: 2.31%; viability, T/C [17]: 2.71%; viability, T/C [18]: 2.37%; viability, T/C [19]: 1.65%; viability, T/C [20]: 1.4%; viability, T/C [21]: 1.34%; viability, T/C [22]: 1.12%; viability, T/C [23]: 0.95%; viability, T/C [24]: 0.94%; viability, T/C [25]: 1.75%; viability, T/C [26]: 1.53%; viability, T/C [27]: 1.29%; viability, T/C [28]: 0.89%; viability, T/C [29]: 1.03%; viability, T/C [30]: 0.98%
4 | COc1ccc([C@@H](O)c2cc(-c3ncnc4cc(N5CCOCC5)ccc34)c(F)cc2Cl)nn1 + CC[C@@]1(O)C(=O)OCc2c1cc1n(c2=O)Cc2cc3c(CN(C)C)c(O)ccc3nc2-1 | 3830 nM | 1220 nM | < 31.6 nM | < 31.6 nM | < 31.6 nM | 95.6% | 95.9% | 94.9% | 86.5% | 58% | 10.6% | 83.1% | 83.6% | 76.3% | 52.6% | 27.9% | 6.04% | 4.02% | 2.47% | 1.69% | viability, T/C [16]: 1.88%; viability, T/C [17]: 1.8%; viability, T/C [18]: 1.21%; viability, T/C [19]: 1.56%; viability, T/C [20]: 1.55%; viability, T/C [21]: 1.96%; viability, T/C [22]: 1.31%; viability, T/C [23]: 0.92%; viability, T/C [24]: 0.89%; viability, T/C [25]: 1.74%; viability, T/C [26]: 1.64%; viability, T/C [27]: 1.32%; viability, T/C [28]: 1.22%; viability, T/C [29]: 0.55%; viability, T/C [30]: 0.42%
5 | [2H]c1nc(C)nc([2H])c1-c1cc(NC[C@@H](C)c2cccc3c(C(=O)NC)ccnc23)ncn1 + CC[C@@]1(O)C(=O)OCc2c1cc1n(c2=O)Cc2cc3c(CN(C)C)c(O)ccc3nc2-1 | > 10000 nM | > 10000 nM | < 31.6 nM | < 31.6 nM | < 31.6 nM | 97.6% | 95.8% | 96.1% | 96.4% | 93.4% | 93% | 83.9% | 76.5% | 74.4% | 75.2% | 68.7% | 62.6% | 2.66% | 2.14% | 2.36% | viability, T/C [16]: 1.49%; viability, T/C [17]: 1.43%; viability, T/C [18]: 1.47%; viability, T/C [19]: 1.75%; viability, T/C [20]: 1.82%; viability, T/C [21]: 1.89%; viability, T/C [22]: 1.74%; viability, T/C [23]: 1.58%; viability, T/C [24]: 1.67%; viability, T/C [25]: 1.97%; viability, T/C [26]: 1.94%; viability, T/C [27]: 1.59%; viability, T/C [28]: 1.73%; viability, T/C [29]: 1.5%; viability, T/C [30]: 1.17%

Source: PubChem BioAssay AID1845213 (Molecular Pharmacology Branch, DTP, NCI, 2023)
